Entries after “also recorded” stand apart in the source; their conditions may differ. Like-named read-outs stand apart in the source and are kept apart here.
Key:
[1] = clinical; conditions: human, in vivo, 800 mg
[2] = rat, six-month, cited from earlier work
[3] = test system: M-NFS-60 cells; assay: cells; type: cell-based; conditions: Mus musculus
[4] = rat, 4-week, cited from earlier work
[5] = human; recommended dose 800 mg daily; cited from earlier work
[6] = test system: TGCT or DTGCT; conditions: cited from earlier work
[7] = human, in vivo, 800 mg

FC(F)(F)c1ccc(CNc2ccc(Cc3c[nH]c4ncc(Cl)cc34)cn2)cn1 [pexidartinib]
AUC(0-t) [1]: 155 µg·h/mL
deaths of main study animals due to treatment-related immunocompromise ([2]; 60 mg/kg daily): 3
liver findings in female rats ([2]; 60 mg/kg, female): biliary cysts and increased gamma-glutamyl transferase (GGT) levels
liver findings ([2]; ≥20 mg/kg): hemosiderin deposition and necrotizing inflammation
IC50 ([3]; read-out: average IC50, inhibition of M-NFS-60 cell proliferation, 10 ng/mL CSF1): 15.7 nM
IC50 ([3]; read-out: average IC50, inhibition of M-NFS-60 cell proliferation, 1,000 ng/mL CSF1): 59.6 nM
NOAEL ([4]; 20, 60, 200 mg/kg/day oral gavage): could not be established
liver enzymes ([4]; all dose groups): increased liver enzymes
liver histology finding ([4]; all dose groups): dose-related hepatocellular centrilobular hypertrophy
AUC0-12 clinical exposure cited in the label [5]: 77465 ng·h/mL
ORR ([6]; ENLIVEN phase 3 randomized trial, maintenance dose 400 mg twice daily): 39%
overall response rate (ORR) ([6]; TGCT or DTGCT patients, 1000 mg daily, phase 2 clinical study): 52%
maximum tolerated dose ([6]; TGCT patients, clinical use): 400 mg twice daily
liver injury / hepatotoxicity ([6]; patients): mixed or cholestatic hepatotoxicity; also recorded: black box warning of hepatotoxicity
maximum tolerated dose and chosen phase 2 dose ([6]; patients): 1000 mg per day
AUC0-24 clinical exposure (estimated from label AUC0-12) [7]: 154.93 µg·h/mL
